This passage reports IC50 results from patent publication US9902728B2, “Pyrrolo and pyrazolopyrimidines as ubiquitin-specific protease 7 inhibitors” (Forma Therapeutics, Inc., priority 2014, dated 2018).

Some results are limits rather than exact numbers.

T1 sequence (Q93009 208-1102): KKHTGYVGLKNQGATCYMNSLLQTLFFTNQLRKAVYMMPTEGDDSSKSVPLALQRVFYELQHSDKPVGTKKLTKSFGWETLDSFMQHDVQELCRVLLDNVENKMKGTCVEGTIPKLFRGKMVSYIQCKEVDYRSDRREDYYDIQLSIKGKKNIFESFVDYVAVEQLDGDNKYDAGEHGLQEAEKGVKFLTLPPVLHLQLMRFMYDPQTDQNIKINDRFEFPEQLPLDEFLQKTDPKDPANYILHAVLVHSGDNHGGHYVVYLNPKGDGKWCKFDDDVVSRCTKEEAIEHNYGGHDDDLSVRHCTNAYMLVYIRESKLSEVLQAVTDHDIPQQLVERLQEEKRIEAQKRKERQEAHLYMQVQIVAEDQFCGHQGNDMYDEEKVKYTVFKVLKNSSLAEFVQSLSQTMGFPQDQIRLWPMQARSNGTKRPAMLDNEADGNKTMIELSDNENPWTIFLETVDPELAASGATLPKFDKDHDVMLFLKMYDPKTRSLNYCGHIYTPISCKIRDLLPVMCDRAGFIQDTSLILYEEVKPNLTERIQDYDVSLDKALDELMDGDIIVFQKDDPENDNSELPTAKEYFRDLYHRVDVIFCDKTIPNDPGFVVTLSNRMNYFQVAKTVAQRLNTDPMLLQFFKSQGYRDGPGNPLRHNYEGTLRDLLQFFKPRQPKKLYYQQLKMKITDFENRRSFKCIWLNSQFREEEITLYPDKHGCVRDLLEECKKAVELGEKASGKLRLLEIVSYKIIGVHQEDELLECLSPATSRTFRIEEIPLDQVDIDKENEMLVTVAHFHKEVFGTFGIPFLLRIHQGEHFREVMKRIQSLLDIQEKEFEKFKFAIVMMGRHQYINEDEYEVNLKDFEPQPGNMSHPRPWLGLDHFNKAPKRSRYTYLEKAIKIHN

One assay concerns the target T1, USP7 (Homo sapiens, UniProt Q93009).
T1 construct: USP7, construct USP7 (208-1102) 6*His, Viva Biotech; 6xHis (C); purchased Viva Biotech
The assay is described as follows: USP7 Assay A (Ubitquin-Rhodamine 110 Assay). The following applies: USP7 activity in USP7 assay A and B (table does not say which assay per compound); read-out: USP7_IC50. The class given is biochemical. In a few lines:
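Ub-Rh110 cleavage in 20 mM Tris-HCl pH 8.0 with 1 mM GSH, 0.03% BGG, 0.01% Triton X-100; compound preincubated with enzyme 30 min before substrate.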
In the case of `O=C(c1ccc(F)cc1)N1CCC(O)(Cn2cnc3c(cnn3-c3ccc(N4CC[C@H](O)C4)cc3)c2=O)CC1` [Compound I-1434], the IC50 fell in the range of 1000 to 10000 nM. Same read-out and setting: then `CC1(C(=O)N2CCC(O)(Cn3cnc4c(cnn4-c4ccc(N5CCC(F)CC5)cc4)c3=O)CC2)CC1` [Compound I-1445], with 200 to 1000 nM; and `CC1(COc2ccc(-n3ncc4c(=O)n(CC5(O)CCN(C(=O)c6cnc(C7CC7)o6)CC5)cnc43)cc2)CCC1` [Compound I-1508], with 200 to 1000 nM; and `CC1(C(=O)N2CCC(O)(Cn3cnc4c(cnn4-c4cccc(N5CCC(F)CC5)c4)c3=O)CC2)CC1` [Compound I-1561], with less than 200 nM. On to `CC1(C(=O)N2CCC(O)(Cn3cnc4c(cnn4-c4ccc(N5CC(C6CCOCC6)C5)cc4)c3=O)CC2)CC1` [Compound I-1570], for which the IC50 lay within 200 to 1000 nM.

Still in this assay, the particulars now being: USP7 assay A and B (table does not say which assay per compound); read-out: USP7_IC50.
In the case of `O=C(Nc1ccc(-n2ncc3c(=O)n(CC4(O)CCN(C(=O)C5CC5)CC4)cnc32)cc1)C1CCOCC1` [Compound I-1395], the IC50 was in the range of 1000 to 10000 nM. As for `Cc1oncc1S(=O)(=O)Nc1cccc(-n2ncc3c(=O)n(CC4(O)CCN(C(=O)C5CC5)CC4)cnc32)c1` [Compound I-1400], the IC50 was in the range of 1000 to 10000 nM. For `O=C(C1CC1)N1CCC(O)(Cn2cnc3c(cnn3-c3ccc(NCC4CCOCC4)cc3)c2=O)CC1` [Compound I-1402], the IC50 fell in the range of 1000 to 10000 nM. Still for that read-out and setting: then `O=C(C1CC1)N1CCC(O)(Cn2cnc3c(cnn3-c3cccc(NS(=O)(=O)c4cccc(Cl)c4)c3)c2=O)CC1` [Compound I-1406], with 1000 to 10000 nM; and `CS(=O)(=O)Nc1cccc(-n2ncc3c(=O)n(CC4(O)CCN(C(=O)C5CC5)CC4)cnc32)c1` [Compound I-1417], with 1000 to 10000 nM; and `Cc1noc(C)c1S(=O)(=O)Nc1ccc(-n2ncc3c(=O)n(CC4(O)CCN(C(=O)C5CC5)CC4)cnc32)cc1` [Compound I-1421], with 1000 to 10000 nM.

For `O=C(C1CC1)N1CCC(O)(Cn2cnc3c(cnn3-c3ccc(NS(=O)(=O)c4ccc(Cl)cc4)cc3)c2=O)CC1` [Compound I-1422], the IC50 lay in the range of 1000 to 10000 nM. The same measure, in the same setting: with `Cc1ccccc1S(=O)(=O)Nc1ccc(-n2ncc3c(=O)n(CC4(O)CCN(C(=O)C5CC5)CC4)cnc32)cc1` [Compound I-1425] the figure was 1000 to 10000 nM.

For `O=C(C1CC1)N1CCC(O)(Cn2cnc3c(cnn3-c3ccc(NS(=O)(=O)c4cccc(Cl)c4)cc3)c2=O)CC1` [Compound I-1428], the IC50 was 1000 to 10000 nM. On the same count and under the same terms, then `CS(=O)(=O)Nc1ccc(-n2ncc3c(=O)n(CC4(O)CCN(C(=O)C5CC5)CC4)cnc32)cc1` [Compound I-1431], with 1000 to 10000 nM; and `O=C(C1CC1)N1CCC(O)(Cn2cnc3c(cnn3-c3ccc(NS(=O)(=O)C4CC4)cc3)c2=O)CC1` [Compound I-1432], with 1000 to 10000 nM. As to `O=C(C1CC1)N1CCC(O)(Cn2cnc3c(cnn3-c3ccc(NS(=O)(=O)Cc4ccc(F)cc4)cc3)c2=O)CC1` [Compound I-1433], the IC50 was 1000 to 10000 nM. Still for that read-out and setting: with `O=C(c1cnc(C2CC2)o1)N1CCC(O)(Cn2cnc3c(cnn3-c3ccc(C(F)(F)F)cc3)c2=O)CC1` [Compound I-1437] the figure was 1000 to 10000 nM.

Turning to `O=C(Nc1ccc(-n2ncc3c(=O)n(CC4(O)CCN(C(=O)C5CC5)CC4)cnc32)cc1)Nc1cccnc1` [Compound I-1448], the IC50 was in the range of 1000 to 10000 nM.

As to `CN(C)C(=O)N1CCC(O)(Cn2cnc3c(cnn3-c3ccc(N4CCC(F)(F)CC4)cc3)c2=O)CC1` [Compound I-1461], the IC50 lay within 1000 to 10000 nM. Still for that read-out and setting: with `CN(C)C1CCN(C(=O)c2cccc(-n3ncc4c(=O)n(CC5(O)CCN(C(=O)C6CC6)CC5)cnc43)c2)CC1` [Compound I-1468] the figure was 1000 to 10000 nM. Same read-out and setting: with `CN(C)CCNC(=O)c1ccc(-n2ncc3c(=O)n(CC4(O)CCN(C(=O)C5CC5)CC4)cnc32)cc1` [Compound I-1487] the figure was 200 to 1000 nM.

Regarding `O=C(Nc1ccccc1)c1ccc(-n2ncc3c(=O)n(CC4(O)CCN(C(=O)C5CC5)CC4)cnc32)cc1` [Compound I-1490], the IC50 was in the range of 1000 to 10000 nM. The same measure, in the same setting: with `O=C(Nc1ccc(F)cc1)c1ccc(-n2ncc3c(=O)n(CC4(O)CCN(C(=O)C5CC5)CC4)cnc32)cc1` [Compound I-1492] the figure was 1000 to 10000 nM. Same read-out and setting: then `O=C(Nc1nccs1)c1ccc(-n2ncc3c(=O)n(CC4(O)CCN(C(=O)C5CC5)CC4)cnc32)cc1` [Compound I-1493], with 1000 to 10000 nM.

For `CN(C)C1CCN(C(=O)c2ccc(-n3ncc4c(=O)n(CC5(O)CCN(C(=O)C6CC6)CC5)cnc43)cc2)CC1` [Compound I-1496], the IC50 lay within 1000 to 10000 nM.

On to `O=C(Nc1ccc(-n2ncc3c(=O)n(CC4(O)CCN(C(=O)C5CC5)CC4)cnc32)cc1)N1CCCC1` [Compound I-1499], for which the IC50 lay in the range of 1000 to 10000 nM. On to `CN(C)C(=O)Nc1cccc(-n2ncc3c(=O)n(CC4(O)CCN(C(=O)C5CC5)CC4)cnc32)c1` [Compound I-1501], for which the IC50 was in the range of 1000 to 10000 nM.

With `Cc1ccc(-n2ncc3c(=O)n(CC4(O)CCN(C(=O)c5ccc(Oc6ccccn6)cc5)CC4)cnc32)cc1` [Compound I-1510], the IC50 was 200 to 1000 nM. Still for that read-out and setting: then `Cc1ccc(-n2ncc3c(=O)n(CC4(O)CCN(C(=O)c5cnc(C)o5)CC4)cnc32)cc1` [Compound I-1514], with 200 to 1000 nM; and `O=C(c1ccc(Oc2ccccn2)cc1)N1CCC(O)(Cn2cnc3c(cnn3-c3ccc(Cl)cc3)c2=O)CC1` [Compound I-1519], with 1000 to 10000 nM. With `O=C(c1ccc2c(c1)CCO2)N1CCC(O)(Cn2cnc3c(cnn3-c3ccc(Cl)cc3)c2=O)CC1` [Compound I-1521], the IC50 was 1000 to 10000 nM. Regarding `Cc1ccc(C(=O)N2CCC(O)(Cn3cnc4c(cnn4-c4ccc(Cl)cc4)c3=O)CC2)cc1F` [Compound I-1523], the IC50 is 1000 to 10000 nM. Still for that read-out and setting: then `Cc1ncc(C(=O)N2CCC(O)(Cn3cnc4c(cnn4-c4ccc(Cl)cc4)c3=O)CC2)o1` [Compound I-1524], with 1000 to 10000 nM. In the case of `CN(C)C(=O)N1CCC(O)(Cn2cnc3c(cnn3-c3ccc(N4CCN5CCCCC5C4)cc3)c2=O)CC1` (centres unmarked) [Compound I-1525], the IC50 was 1000 to 10000 nM.

For `CN(C)C(=O)N1CCC(O)(Cn2cnc3c(cnn3-c3ccc(-n4cc(C(F)(F)F)cn4)cc3)c2=O)CC1` [Compound I-1526], the IC50 fell in the range of 1000 to 10000 nM. Take `O=C(c1cc2n(n1)CCO2)N1CCC(O)(Cn2cnc3c(cnn3-c3ccc(Cl)cc3)c2=O)CC1` [Compound I-1527]: the IC50 lay within 1000 to 10000 nM. As for `O=C(c1ccc(Oc2ncccn2)cc1)N1CCC(O)(Cn2cnc3c(cnn3-c3ccc(Cl)cc3)c2=O)CC1` [Compound I-1528], the IC50 is 1000 to 10000 nM. Still for that read-out and setting: then `O=C(c1ccc(-n2ccnn2)cc1)N1CCC(O)(Cn2cnc3c(cnn3-c3ccc(F)cc3)c2=O)CC1` [Compound I-1535], with 200 to 1000 nM; and `Cc1ccc(-n2ncc3c(=O)n(CC4(O)CCN(C(=O)c5cnc(C6CC6)o5)CC4)cnc32)cc1` [Compound I-1542], with 200 to 1000 nM. Regarding `CN(C)C(=O)N1CCC(O)(Cn2cnc3c(cnn3-c3ccc(NCCN4CCCCC4)cc3)c2=O)CC1` [Compound I-1543], the IC50 lay in the range of 200 to 1000 nM. The same measure, in the same setting: with `CN(C)C(=O)N1CCC(O)(Cn2cnc3c(cnn3-c3ccc(NC4CC(C)(C)C4)cc3)c2=O)CC1` [Compound I-1544] the figure was 1000 to 10000 nM; with `O=C(c1cc2n(n1)CCCO2)N1CCC(O)(Cn2cnc3c(cnn3-c3ccc(Cl)cc3)c2=O)CC1` [Compound I-1569], 1000 to 10000 nM; with `CN(C)C(=O)Nc1ccc(-n2ncc3c(=O)n(CC4(O)CCN(C(=O)c5ccc(F)cc5)CC4)cnc32)cc1` [Compound I-1576], 1000 to 10000 nM.
